# Assay results: ChEMBL document CHEMBL5725871, “Indanylaminopyridylcyclopropanecarboxylic acids, pharmaceutical compositions and uses thereof” (2018)
# Legend:
# Cytochrome P450 2C8 = molecular target: T1, Cytochrome P450 2C8 (Homo sapiens, UniProt P10632); assay: (§1) All assays are carried out on a robotic system in 96 well plates. The final incubation volume contains TRIS buffer (0.1 M), MgCl2 (5 mM), human liver microsomes (0.05 mg/mL), amodiaquine (1 μM) and the test compound at five different concentrations or no compound (high control) in duplicate (e.g. highest concentration 10-50 μM with subsequent serial 1:4 dilutions). Following a short preincubation period, reactions are started with the cofactor (NADPH, 1 mM) and stopped by cooling the incubation down to 8° C. and subsequently by addition of one volume of acetonitrile. An internal standard solution¿the stable isotope d5-desethylamodiaquine is added after quenching of incubations. Peak area analyte (=metabolite formed) and internal standard is determined by LC-MS/MS. The resulting peak area ratio analyte to internal standard in these incubations is compared to a control activity containing no test compound. Within each of the assay runs, the IC50 of a positive control inhibitor (Montelukast) is determined.
# T1 sequence (P10632 whole entry): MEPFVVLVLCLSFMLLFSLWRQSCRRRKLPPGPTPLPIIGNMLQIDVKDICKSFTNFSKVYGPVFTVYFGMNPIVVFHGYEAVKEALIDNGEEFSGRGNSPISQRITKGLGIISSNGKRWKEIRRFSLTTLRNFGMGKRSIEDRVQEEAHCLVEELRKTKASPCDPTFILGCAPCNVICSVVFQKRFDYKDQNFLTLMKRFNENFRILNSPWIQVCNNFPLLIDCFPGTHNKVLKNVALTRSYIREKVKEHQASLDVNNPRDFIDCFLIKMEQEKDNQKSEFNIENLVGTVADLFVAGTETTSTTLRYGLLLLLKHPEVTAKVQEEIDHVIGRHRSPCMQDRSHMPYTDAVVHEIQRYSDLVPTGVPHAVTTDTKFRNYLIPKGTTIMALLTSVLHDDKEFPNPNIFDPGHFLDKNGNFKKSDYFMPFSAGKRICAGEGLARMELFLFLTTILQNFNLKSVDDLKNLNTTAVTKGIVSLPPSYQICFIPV
# Cytochrome P450 2C9 = Cytochrome P450 2C9 (Homo sapiens, UniProt P11712); assay: as §1, with “(0.1” for “(0.05”, “diclofenac (10” for “amodiaquine (1”, “(e.g.,” for “(e.g.”, “solution the” for “solution¿the”, “13C6-hydroxydiclofenac” for “d5-desethylamodiaquine”, “(sulfaphenazole)” for “(Montelukast)”
# Chain of Cytochrome P450 2C9 (P11712 whole entry): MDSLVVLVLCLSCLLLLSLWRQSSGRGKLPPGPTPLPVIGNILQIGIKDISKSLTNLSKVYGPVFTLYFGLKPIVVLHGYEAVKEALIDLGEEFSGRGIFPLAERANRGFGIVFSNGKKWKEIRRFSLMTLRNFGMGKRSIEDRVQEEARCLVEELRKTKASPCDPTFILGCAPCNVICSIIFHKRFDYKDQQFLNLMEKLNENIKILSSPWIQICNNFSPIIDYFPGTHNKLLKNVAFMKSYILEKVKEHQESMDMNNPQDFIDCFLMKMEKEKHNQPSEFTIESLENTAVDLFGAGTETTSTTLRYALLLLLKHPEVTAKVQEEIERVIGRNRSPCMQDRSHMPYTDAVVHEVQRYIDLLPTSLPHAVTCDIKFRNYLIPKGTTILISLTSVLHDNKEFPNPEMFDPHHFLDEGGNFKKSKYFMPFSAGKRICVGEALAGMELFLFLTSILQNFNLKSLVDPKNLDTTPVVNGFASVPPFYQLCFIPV
Structure (SMILES),IC50 (Cytochrome P450 2C8) [µM],IC50 (Cytochrome P450 2C9) [µM]
Cc1cc(C(=O)NCC(C)(C)O)cc(C)c1-c1ccc(F)c2c1CC[C@H]2Nc1ccc([C@H]2C[C@@H]2C(=O)O)nc1,10,31
Cc1cccc(C)c1-c1ccc(F)c2c1CC[C@H]2Nc1ccc([C@H]2C[C@@H]2C(=O)O)nc1,5,7
Cc1c(C#N)cccc1-c1ccc(F)c2c1CC[C@H]2Nc1ccc([C@H]2C[C@@H]2C(=O)O)nc1,9,10
